# According to PMC7265341, “Quantifying CDK inhibitor selectivity in live cells” (Nature Communications, 2020):
# Like-named read-outs stand apart in the source and are kept apart here.
# What was measured:
# CDK12/Cyclin K = CDK12/Cyclin K (Homo sapiens, UniProt Q9NYV4); experiment: NanoBRET live-cell target engagement, CDK12-NanoLuc/Cyclin K in HEK-293; assay type: binding; details: CDK12/K, read-out: Inhibition at 10µM (%)
# CDK8/Cyclin C = CDK8/Cyclin C (Homo sapiens, UniProt P49336); experiment: NanoBRET live-cell target engagement, NanoLuc-CDK8/Cyclin C in HEK-293; assay type: binding; details: CDK8/C, read-out: Inhibition at 10µM (%)
# CDK17/Cyclin Y = CDK17/Cyclin Y (Homo sapiens, UniProt Q00537); experiment: NanoBRET live-cell target engagement, CDK17-NanoLuc/Cyclin Y in HEK-293; assay type: binding
# CDK17/Cyclin Y, sequence (Q00537 whole entry): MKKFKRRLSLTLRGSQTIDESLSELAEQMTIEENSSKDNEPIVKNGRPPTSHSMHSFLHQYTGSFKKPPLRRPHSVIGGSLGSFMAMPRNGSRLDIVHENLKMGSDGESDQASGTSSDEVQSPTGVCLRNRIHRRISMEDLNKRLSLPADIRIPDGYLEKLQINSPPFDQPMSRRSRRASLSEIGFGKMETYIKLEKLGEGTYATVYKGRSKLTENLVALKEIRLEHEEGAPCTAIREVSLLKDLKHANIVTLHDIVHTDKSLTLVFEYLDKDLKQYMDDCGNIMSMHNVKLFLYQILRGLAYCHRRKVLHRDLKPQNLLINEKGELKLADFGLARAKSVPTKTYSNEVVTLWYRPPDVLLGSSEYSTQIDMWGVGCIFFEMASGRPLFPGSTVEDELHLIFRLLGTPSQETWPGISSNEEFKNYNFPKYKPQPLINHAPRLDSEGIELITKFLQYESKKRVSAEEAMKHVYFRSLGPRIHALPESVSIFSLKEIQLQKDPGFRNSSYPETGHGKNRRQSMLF
# CDK17/Cyclin Y, sequence (Q8ND76 whole entry partner): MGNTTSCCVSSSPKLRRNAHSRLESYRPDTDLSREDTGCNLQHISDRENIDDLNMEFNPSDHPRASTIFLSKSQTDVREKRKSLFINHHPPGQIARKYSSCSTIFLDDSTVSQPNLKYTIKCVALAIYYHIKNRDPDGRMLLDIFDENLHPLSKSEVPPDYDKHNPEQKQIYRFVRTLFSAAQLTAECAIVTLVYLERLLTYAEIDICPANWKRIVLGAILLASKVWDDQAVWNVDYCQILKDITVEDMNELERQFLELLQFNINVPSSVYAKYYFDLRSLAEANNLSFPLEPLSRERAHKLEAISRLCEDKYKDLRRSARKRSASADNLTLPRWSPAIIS
# CDK19/Cyclin C = CDK19/Cyclin C (Homo sapiens, UniProt Q9BWU1); experiment: NanoBRET live-cell target engagement, NanoLuc-CDK19/Cyclin C in HEK-293; details: read-out: Inhibition at 10µM (%), CDK19/C
# CDK19/Cyclin C, sequence (Q9BWU1 whole entry): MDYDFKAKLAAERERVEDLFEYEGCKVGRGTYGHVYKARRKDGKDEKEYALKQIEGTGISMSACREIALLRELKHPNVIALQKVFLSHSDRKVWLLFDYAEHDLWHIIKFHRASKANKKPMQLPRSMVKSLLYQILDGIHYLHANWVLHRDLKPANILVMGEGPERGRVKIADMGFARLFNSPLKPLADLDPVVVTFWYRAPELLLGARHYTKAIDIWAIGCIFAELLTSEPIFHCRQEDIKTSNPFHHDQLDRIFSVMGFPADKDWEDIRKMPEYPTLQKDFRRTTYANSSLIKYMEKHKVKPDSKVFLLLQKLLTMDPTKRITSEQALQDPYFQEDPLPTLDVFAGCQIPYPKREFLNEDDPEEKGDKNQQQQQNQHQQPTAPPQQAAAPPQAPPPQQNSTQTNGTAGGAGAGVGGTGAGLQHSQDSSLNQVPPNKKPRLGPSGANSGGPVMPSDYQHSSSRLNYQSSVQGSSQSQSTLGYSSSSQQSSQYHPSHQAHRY
# CDK19/Cyclin C, sequence (P24863 whole entry partner): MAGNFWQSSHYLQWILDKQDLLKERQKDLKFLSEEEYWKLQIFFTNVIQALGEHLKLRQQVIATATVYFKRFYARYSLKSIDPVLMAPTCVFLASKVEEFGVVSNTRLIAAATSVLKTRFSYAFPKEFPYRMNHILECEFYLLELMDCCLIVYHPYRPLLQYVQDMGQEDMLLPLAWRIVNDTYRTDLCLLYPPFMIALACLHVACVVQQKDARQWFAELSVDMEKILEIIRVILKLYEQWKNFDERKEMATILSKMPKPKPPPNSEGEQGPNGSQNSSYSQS
# CDK14/Cyclin Y = CDK14/Cyclin Y (Homo sapiens, UniProt O94921); experiment: NanoBRET live-cell target engagement, CDK14-NanoLuc/Cyclin Y in HEK-293; assay type: binding; details: CDK14/Y, read-out: Inhibition at 10µM (%)
# CDK14/Cyclin Y, sequence (O94921 whole entry): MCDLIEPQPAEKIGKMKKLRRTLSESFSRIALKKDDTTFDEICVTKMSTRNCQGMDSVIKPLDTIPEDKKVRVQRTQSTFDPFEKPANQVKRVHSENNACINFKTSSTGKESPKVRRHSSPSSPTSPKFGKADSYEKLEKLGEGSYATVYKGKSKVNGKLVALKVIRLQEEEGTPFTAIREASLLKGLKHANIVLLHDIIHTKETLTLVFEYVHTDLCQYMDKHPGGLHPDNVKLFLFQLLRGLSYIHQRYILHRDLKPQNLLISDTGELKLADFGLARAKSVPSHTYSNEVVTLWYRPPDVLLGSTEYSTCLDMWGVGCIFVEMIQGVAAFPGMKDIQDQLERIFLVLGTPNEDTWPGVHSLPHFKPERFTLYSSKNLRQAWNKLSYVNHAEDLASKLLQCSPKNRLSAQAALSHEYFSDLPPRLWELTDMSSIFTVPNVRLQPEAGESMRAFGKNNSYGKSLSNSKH
# CDK14/Cyclin Y, sequence (Q8ND76 whole entry partner): as the sequence (Q8ND76 whole entry partner) above
# CDK11B/Cyclin L2 = CDK11B/Cyclin L2 (Homo sapiens, UniProt P21127); experiment: NanoBRET live-cell target engagement, CDK11B-NanoLuc/Cyclin L2 in HEK-293; assay type: binding; details: CDK11b/L2, read-out: Inhibition at 10µM (%)
# CDK11B/Cyclin L2, sequence (P21127 1-782 isoform P21127-2): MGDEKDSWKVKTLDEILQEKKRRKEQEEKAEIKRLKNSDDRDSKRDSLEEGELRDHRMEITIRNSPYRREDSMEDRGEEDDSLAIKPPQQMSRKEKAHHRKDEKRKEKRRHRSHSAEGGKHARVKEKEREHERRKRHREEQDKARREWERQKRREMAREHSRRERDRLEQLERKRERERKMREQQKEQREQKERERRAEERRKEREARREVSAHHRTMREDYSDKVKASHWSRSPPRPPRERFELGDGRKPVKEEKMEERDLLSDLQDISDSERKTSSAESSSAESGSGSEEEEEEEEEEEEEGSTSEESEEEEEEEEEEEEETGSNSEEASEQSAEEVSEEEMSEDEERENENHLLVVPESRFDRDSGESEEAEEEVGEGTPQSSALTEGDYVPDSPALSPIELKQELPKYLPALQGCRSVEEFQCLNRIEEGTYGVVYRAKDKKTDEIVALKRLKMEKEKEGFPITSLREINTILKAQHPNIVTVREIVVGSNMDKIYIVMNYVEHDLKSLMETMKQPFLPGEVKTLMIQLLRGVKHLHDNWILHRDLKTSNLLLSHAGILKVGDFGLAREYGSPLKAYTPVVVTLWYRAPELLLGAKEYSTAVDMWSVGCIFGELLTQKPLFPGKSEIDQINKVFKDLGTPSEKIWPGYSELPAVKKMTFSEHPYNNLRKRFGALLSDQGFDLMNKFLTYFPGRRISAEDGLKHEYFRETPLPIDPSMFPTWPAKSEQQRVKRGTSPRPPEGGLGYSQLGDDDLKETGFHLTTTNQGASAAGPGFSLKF
# CDK20/Cyclin H = CDK20/Cyclin H (Homo sapiens, UniProt Q8IZL9); experiment: NanoBRET live-cell target engagement, NanoLuc-CDK20/Cyclin H in HEK-293; assay type: binding; details: CDK20/H, read-out: Inhibition at 10µM (%)
# CDK5/CDK5R1 = CDK5/CDK5R1 (Homo sapiens, UniProt Q00535); experiment: NanoBRET live-cell target engagement, CDK5-NanoLuc/CDK5R1 in HEK-293; assay type: binding; details: CDK5/CDK5R1, read-out: Inhibition at 10µM (%)
# CDK5/CDK5R1, sequence (Q00535 whole entry): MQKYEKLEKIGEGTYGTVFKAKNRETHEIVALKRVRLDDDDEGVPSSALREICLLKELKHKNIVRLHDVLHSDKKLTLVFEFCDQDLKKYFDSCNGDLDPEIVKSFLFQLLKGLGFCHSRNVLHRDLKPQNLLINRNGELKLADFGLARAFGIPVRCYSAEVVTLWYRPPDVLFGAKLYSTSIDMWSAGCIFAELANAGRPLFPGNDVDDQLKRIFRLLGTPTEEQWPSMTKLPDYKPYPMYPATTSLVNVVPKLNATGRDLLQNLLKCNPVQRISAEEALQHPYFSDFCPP
# CDK5/CDK5R1, sequence (Q15078 whole entry partner): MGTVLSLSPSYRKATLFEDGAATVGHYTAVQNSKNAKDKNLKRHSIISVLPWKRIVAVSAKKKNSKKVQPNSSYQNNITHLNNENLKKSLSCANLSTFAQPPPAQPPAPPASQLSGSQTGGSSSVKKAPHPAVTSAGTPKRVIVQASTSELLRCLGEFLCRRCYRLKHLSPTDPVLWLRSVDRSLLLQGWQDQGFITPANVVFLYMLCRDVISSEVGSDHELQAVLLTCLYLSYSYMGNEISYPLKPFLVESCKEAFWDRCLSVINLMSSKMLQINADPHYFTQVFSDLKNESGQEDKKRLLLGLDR
# CDK13/Cyclin K = CDK13/Cyclin K (Homo sapiens, UniProt Q14004); experiment: NanoBRET live-cell target engagement, CDK13-NanoLuc/Cyclin K in HEK-293; assay type: binding; details: CDK13/K, read-out: Inhibition at 10µM (%)
# CDK18/Cyclin Y = CDK18/Cyclin Y (Homo sapiens, UniProt Q07002); experiment: NanoBRET live-cell target engagement, CDK18-NanoLuc/Cyclin Y in HEK-293; assay type: binding; details: CDK18/Y, read-out: Inhibition at 10µM (%)
# CDK18/Cyclin Y, sequence (Q07002 whole entry): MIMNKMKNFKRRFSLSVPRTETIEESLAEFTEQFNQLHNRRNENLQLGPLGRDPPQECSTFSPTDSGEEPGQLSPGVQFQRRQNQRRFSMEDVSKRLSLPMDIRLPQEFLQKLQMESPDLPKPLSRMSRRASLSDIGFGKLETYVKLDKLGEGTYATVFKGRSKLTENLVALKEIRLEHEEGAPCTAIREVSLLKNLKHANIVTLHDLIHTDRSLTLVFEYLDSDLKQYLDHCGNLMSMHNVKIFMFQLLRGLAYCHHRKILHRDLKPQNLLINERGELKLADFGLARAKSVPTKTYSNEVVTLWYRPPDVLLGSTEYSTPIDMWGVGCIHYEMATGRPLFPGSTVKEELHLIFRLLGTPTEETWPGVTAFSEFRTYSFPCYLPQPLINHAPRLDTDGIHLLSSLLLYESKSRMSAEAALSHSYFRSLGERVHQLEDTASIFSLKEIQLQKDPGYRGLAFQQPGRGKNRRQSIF
# CDK18/Cyclin Y, sequence (Q8ND76 whole entry partner): as the sequence (Q8ND76 whole entry partner) above
# CDK15/Cyclin Y = CDK15/Cyclin Y (Homo sapiens, UniProt Q96Q40); experiment: NanoBRET live-cell target engagement, NanoLuc-CDK15/Cyclin Y in HEK-293; assay type: binding; details: CDK15/Y, read-out: Inhibition at 10µM (%)
# CDK15/Cyclin Y, sequence (Q96Q40 whole entry): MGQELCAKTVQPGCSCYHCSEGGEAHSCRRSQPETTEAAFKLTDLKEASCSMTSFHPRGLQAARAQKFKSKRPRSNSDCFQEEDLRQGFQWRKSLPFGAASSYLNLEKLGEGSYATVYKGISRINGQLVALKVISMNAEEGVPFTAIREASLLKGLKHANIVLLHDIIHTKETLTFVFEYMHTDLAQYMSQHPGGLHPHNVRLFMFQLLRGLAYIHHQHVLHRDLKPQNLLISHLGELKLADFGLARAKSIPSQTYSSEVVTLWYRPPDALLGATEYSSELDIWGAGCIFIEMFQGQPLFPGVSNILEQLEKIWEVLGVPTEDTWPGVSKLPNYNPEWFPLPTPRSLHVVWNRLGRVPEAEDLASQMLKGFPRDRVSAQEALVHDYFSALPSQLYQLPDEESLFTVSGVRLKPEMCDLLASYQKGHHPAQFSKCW
# CDK15/Cyclin Y, sequence (Q8ND76 whole entry partner): as the sequence (Q8ND76 whole entry partner) above
# CDK11A/Cyclin L2 = target: T1, CDK11A/Cyclin L2 (Homo sapiens, UniProt Q9UQ88); experiment: NanoBRET live-cell target engagement, CDK11A-NanoLuc/Cyclin L2 in HEK-293; assay type: binding; details: CDK11a/L2, read-out: Inhibition at 10µM (%)
# T1 sequence (Q9UQ88 1-783): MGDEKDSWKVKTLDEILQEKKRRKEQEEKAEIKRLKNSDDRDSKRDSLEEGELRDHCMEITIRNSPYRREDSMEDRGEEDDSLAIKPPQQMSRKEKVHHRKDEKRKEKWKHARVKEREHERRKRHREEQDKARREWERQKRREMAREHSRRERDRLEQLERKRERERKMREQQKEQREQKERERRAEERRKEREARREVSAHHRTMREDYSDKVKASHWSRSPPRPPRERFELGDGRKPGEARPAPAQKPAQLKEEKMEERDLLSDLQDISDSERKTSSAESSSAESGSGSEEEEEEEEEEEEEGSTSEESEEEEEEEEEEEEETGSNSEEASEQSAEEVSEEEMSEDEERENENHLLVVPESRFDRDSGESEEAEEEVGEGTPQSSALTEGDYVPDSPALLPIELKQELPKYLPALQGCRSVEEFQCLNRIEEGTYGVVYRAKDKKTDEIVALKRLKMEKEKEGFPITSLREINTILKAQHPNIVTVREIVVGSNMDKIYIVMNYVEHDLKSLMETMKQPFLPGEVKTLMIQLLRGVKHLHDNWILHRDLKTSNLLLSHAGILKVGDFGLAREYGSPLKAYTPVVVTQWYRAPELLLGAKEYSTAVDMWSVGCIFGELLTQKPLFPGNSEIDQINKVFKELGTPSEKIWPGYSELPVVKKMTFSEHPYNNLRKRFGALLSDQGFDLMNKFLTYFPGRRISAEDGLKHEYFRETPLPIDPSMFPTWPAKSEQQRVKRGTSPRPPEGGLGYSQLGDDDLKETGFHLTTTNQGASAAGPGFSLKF
# CDK4/Cyclin D1 = CDK4/Cyclin D1 (Homo sapiens, UniProt P11802); experiment: NanoBRET live-cell target engagement, NanoLuc-CDK4/Cyclin D1 in HEK-293; assay type: binding; details: CDK4/D1, read-out: Inhibition at 10µM (%)
# all 21 human CDKs = experiment: Live-cell selectivity profile across all 21 CDK/cyclin complexes in HEK-293; assay type: binding; details: live cells
# CDK10/Cyclin L2 = CDK10/Cyclin L2 (Homo sapiens, UniProt Q15131); experiment: NanoBRET live-cell target engagement, CDK10-NanoLuc/Cyclin L2 in HEK-293; details: read-out: Inhibition at 10µM (%), CDK10/L2
# CDK10/Cyclin L2, sequence (Q15131 whole entry): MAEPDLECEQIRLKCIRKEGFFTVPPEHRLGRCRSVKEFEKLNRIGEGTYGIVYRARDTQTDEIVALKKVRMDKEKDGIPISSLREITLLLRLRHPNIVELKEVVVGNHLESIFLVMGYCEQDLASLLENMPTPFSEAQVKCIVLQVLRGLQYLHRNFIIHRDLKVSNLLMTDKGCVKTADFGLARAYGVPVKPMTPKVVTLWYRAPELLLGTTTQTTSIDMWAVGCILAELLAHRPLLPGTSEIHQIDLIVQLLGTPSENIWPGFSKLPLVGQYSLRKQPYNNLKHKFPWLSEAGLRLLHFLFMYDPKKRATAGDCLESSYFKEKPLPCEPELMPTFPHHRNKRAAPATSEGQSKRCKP
# CDK16/Cyclin Y = CDK16/Cyclin Y (Homo sapiens, UniProt Q00536); experiment: NanoBRET live-cell target engagement, CDK16-NanoLuc/Cyclin Y in HEK-293; assay type: binding; details: CDK16/Y, read-out: Inhibition at 10µM (%)
smiles,measurement,setting,value
CC(C)(C)c1nc(-c2cccc(NS(=O)(=O)c3c(F)cccc3F)c2F)c(-c2ccnc(N)n2)s1 [Dabrafenib],inhibition at 10 µM,CDK12/Cyclin K; average,20.2%
same,inhibition at 10 µM,CDK12/Cyclin K; experiment 1,5.9%
same,inhibition at 10 µM,CDK12/Cyclin K; experiment 2,34.6%
same,inhibition at 10 µM,CDK8/Cyclin C; average,-1.9%
same,inhibition at 10 µM,CDK8/Cyclin C; experiment 1,-1.4%
same,inhibition at 10 µM,CDK8/Cyclin C; experiment 2,-2.4%
same,inhibition at 10 µM,"CDK17/Cyclin Y; CDK17/Y, average, read-out: Inhibition at 10µM (%)",10.2%
same,inhibition at 10 µM,"CDK17/Cyclin Y; CDK17/Y, experiment 2, read-out: Inhibition at 10µM (%)",4%
same,inhibition at 10 µM,"CDK17/Cyclin Y; read-out: Inhibition at 10µM (%), CDK17/Y, experiment 1",16.4%
same,inhibition at 10 µM,CDK19/Cyclin C; average,-6.6%
same,inhibition at 10 µM,CDK19/Cyclin C; experiment 1,0.8%
same,inhibition at 10 µM,CDK19/Cyclin C; experiment 2,-14%
same,inhibition at 10 µM,CDK14/Cyclin Y; average,0.0911%
same,inhibition at 10 µM,CDK14/Cyclin Y; experiment 1,0.459%
same,inhibition at 10 µM,CDK14/Cyclin Y; experiment 2,-0.277%
same,inhibition at 10 µM,CDK11B/Cyclin L2; average,4.4%
same,inhibition at 10 µM,CDK11B/Cyclin L2; experiment 1,2.7%
same,inhibition at 10 µM,CDK11B/Cyclin L2; experiment 2,6%
same,inhibition at 10 µM,CDK20/Cyclin H; experiment 1,13.5%
same,inhibition at 10 µM,CDK20/Cyclin H; experiment 2,6.7%
same,inhibition at 10 µM,CDK5/CDK5R1; average,-2.2%
same,inhibition at 10 µM,CDK5/CDK5R1; experiment 1,-4.1%
same,inhibition at 10 µM,CDK5/CDK5R1; experiment 2,-0.278%
same,inhibition at 10 µM,CDK13/Cyclin K; average,10.9%
same,inhibition at 10 µM,CDK13/Cyclin K; experiment 1,7.1%
same,inhibition at 10 µM,CDK13/Cyclin K; experiment 2,14.7%
same,inhibition at 10 µM,CDK18/Cyclin Y; average,8.1%
same,inhibition at 10 µM,CDK18/Cyclin Y; experiment 1,1.7%
same,inhibition at 10 µM,CDK18/Cyclin Y; experiment 2,14.5%
same,inhibition at 10 µM,CDK15/Cyclin Y; average,14.6%
same,inhibition at 10 µM,CDK15/Cyclin Y; experiment 1,4.4%
same,inhibition at 10 µM,CDK15/Cyclin Y; experiment 2,24.7%
same,inhibition at 10 µM,CDK11A/Cyclin L2; average,9.5%
same,inhibition at 10 µM,CDK11A/Cyclin L2; experiment 1,2.1%
same,inhibition at 10 µM,CDK11A/Cyclin L2; experiment 2,16.8%
same,inhibition at 10 µM,CDK4/Cyclin D1; average,21.4%
same,inhibition at 10 µM,CDK4/Cyclin D1; experiment 1,5.4%
same,inhibition at 10 µM,CDK4/Cyclin D1; experiment 2,37.4%
same,engagement of CDKs at concentrations up to 10μM,all 21 human CDKs,only weakly engaged
same,inhibition at 10 µM,CDK10/Cyclin L2; average,12.7%
same,inhibition at 10 µM,CDK10/Cyclin L2; experiment 1,3%
same,inhibition at 10 µM,CDK10/Cyclin L2; experiment 2,22.4%
same,inhibition at 10 µM,CDK16/Cyclin Y; experiment 1,1.4%
same,inhibition at 10 µM,CDK16/Cyclin Y; experiment 2,-3.4%
